# Values joined by “and” are separate entries in the source; they are usually repeats but may differ in a detail not shown here. Equal values may be shown once.
# Experiments:
# In vitro lipolysis study = format: in vitro ADME; conditions: lipolysis medium pH 6.5, pancreatic lipase, 37°C, 20 mg scutellarin equivalent, n = 3
# Method: In vitro lipolysis studies were performed as previously described, [22] with minor modifications. Briefly, lipolysis medium was prepared in advance, containing 5 mM bile salt, 2 mM trizma maleate buffer, 1.25 mM phosphatidyl choline, and 150 mM sodium chloride, and was adjusted to pH 6.5 with 0.1 M NaOH. Then according to the single-dosage of commercial oral solution detailed as 70 mg scutellarin administrated into 900 mL GI medium, scutellarin powder, SPC, conventional SEDDS and super-SEDDS with a dose of 20 mg (equivalent to scutellarin) were dispersed in 250 mL warmed lipolysis medium (37°C), with a stirring rate of 100 rpm. After that, lipolysis was initiated by adding 50 mL freshly prepared pancreatic lipase solution (2000 TBU/mL, pH 6.5, 37°C), then controlled by constantly pumping 0.15 M CaCl2 with a rate of 0.25 mL/min. Over the lipolysis period, pH value was maintained at 6.5 by a pH-stat device (902 Titrando, Metrohm, Switzerland). At pre-determined time intervals (5, 10, 20, 30, 45, 60, 90, 120 min), 5 mL digested medium was taken and filtered by 0.45 µm polypropylene membrane. The filtered samples were immediately diluted 10 times with acetonitrile to stop lipolysis and induce protein precipitation. At last, the diluted samples were centrifuged at 10,000 rpm for 10 min (Centrifuge 5810R, Eppendorf, Germany), and subsequently analyzed by HPLC (as mentioned later).
# [1] = Ex vivo intestinal absorption, everted intestinal sac; format: in vitro ADME, Sprague-Dawley (SD) rats; conditions: everted rat jejunum sac, 50 µg/mL scutellarin
# Method: An everted intestinal sac experiment, modified according to the method previously described, was adopted to evaluate the ex vivo intestinal absorption of scutellarin. Kreb-Ringer’s (K–R) solution, containing 342.0 mM NaCl, 6.7 mM KCl, 5.9 mM CaCl2·2H2O, 5.3 mM MgCl2, 59.5 mM NaHCO3, 2.1 mM NaH2PO4 and 5.5 mM glucose, was prepared in advance. Half was cooled in 4°C refrigerator and the rest was warmed in a 37°C water bath. Scutellarin powder, SPC, conventional SEDDS and Super-SEDDS were dispersed in warmed K–R solution with a concentration of 50 µg/mL scutellarin, approximate to the lowest released concentration of drug during the lipolysis test. Male Sprague-Dawley (SD) rats were fasted overnight and then anesthetized with an intraperitoneal injection of chloral hydrated (10%, w/v) at a dose of 0.4 mL per 100 g. After dissection of the abdominal wall, the jejunum (21 cm from the pylorus) was carefully isolated without any mesentery, clipped into segments of 10 cm, and quickly rinsed in cooled K–R solution. […] After the tests, the length and width of the intestinal segments were measured for the calculation of uptake amount per unit area.
# [2] = In vivo pharmacokinetics after oral dosing; conditions: male, Sprague-Dawley, rat, plasma, 40 mg/kg equivalent to scutellarin, SD rats, n = 5, mean ± SD
# Method: 20 male SD rats (300∼350 g) were fasted but allowed free access to water for 12 h, then divided randomly into 4 groups for the pharmacokinetics experiments of scutellarin powder, SPC, conventional SEDDS and Super-SEDDS. In order to avoid failure detection of plasma drug, the various formulations were orally administrated to rats at a dose of 40 mg/kg, according to the highest dosage of commercial oral solution, with a ceiling volume of 10 mL/kg when dispersed by purified water. The blood samples of 0.5 mL were collected in a 1.5 mL heparin treated EP tube from the orbital venous prior to the dose and at 0.5, 1, 2, 3, 4, 5, 6, 8, 10, 12, 24 and 36 h after the dose. The plasma was immediately isolated from whole blood by centrifugation (4000 rpm, 10 min) at room temperature and then stored in a −80°C freezer until analysis.
# An HPLC analysis system (HP 1100 series, Agilent Technologies, Wilmington, Germany) of a quaternary pump, an autosampler and a UV detector with an ODS-C18 column (250 mm×4.6 mm i.d., Sepax Technologies Inc., Delaware, USA), was used for the determination of scutellarin. The mobile phase was a mixture of methanol, acetonitrile and 50 mM KH2PO4, at a ratio of 22∶15:63 (v/v/v), with pH of 2.5 adjusted by phosphoric acid. The detection was carried out at a wavelength of 335 nm, with a flow rate of 1.0 mL/min at room temperature.
# 200 µL of thawed plasma was removed to a 10 mL EP tube. 50 µL of internal standard working solution (20 µg/mL of rutin in methanol) was added and subsequently acidified by 100 µL of phosphoric acid (10 wt %) for 10 min. Then, 3 mL of ethyl acetate was infused for extracting scutellarin from plasma. After 30 min vortex, samples were centrifuged at 4000 rpm for 10 min, and the isolated supernatant was concentrated under nitrogen gas flow in bath of 40°C. Before HPLC detection, it needed to be re-dissolved by 100 µL of HPLC mobile phase and centrifuged at 10,000 rpm for 5 min. The whole analytical methodology including plasma treatment and HPLC detection was validated by accuracy and precision (see Table 2) as previously described.
# The plasma data was analyzed in batches by DAS 2.0 (Mathematical Pharmacology Professional Committee of China, Shanghai, China). Peak plasma concentration (Cmax) and the time to reach Cmax (Tmax) were based on measured values. Area under the curve (AUC0-t) was calculated via a trapezoidal area method. […] All values were expressed as the mean ± standard deviation. The significant differences between each group were determined by one way analysis of variance (ANOVA) using the statistical package for social sciences software (SPSS® version 17.0, SPSS Inc., Shanghai, China), with the significance defined as p<0.05 and high significance as p<0.001.
# [3] = parameters: method as in PMID 16269273; conditions: cited from earlier work
structure (smiles),measurement,setting,value
"O=C(O)[C@H]1O[C@@H](Oc2cc3oc(-c4ccc(O)cc4)cc(=O)c3c(O)c2O)[C@H](O)[C@@H](O)[C@@H]1O [Scutellarin powder, Scutellarin]",cumulative dissolution percentage,In vitro lipolysis study,70% and 70.1±3.2%
same,intestinal absorption (cumulative),[1],0.04 µg/cm^2
same,AUC(0-t),[2],2670 ± 404 ng·h/mL
same,Cmax,[2],178 ± 35 ng/mL
same,Tmax,[2],5.2 ± 0.8 h
same,half-life,[2]; read-out: T1/2z (converted),34.8 ± 22.8 h
same,pKa,[3],3.29

# — article PMC3877285, “A New Strategy for Enhancing the Oral Bioavailability of Drugs with Poor Water-Solubility and Low Liposolubility Based on Phospholipid Complex and Supersaturated SEDDS” (PLoS ONE, 2013)
